Reference: US20090221653A1, “7-(2-amino-1-hydroxy-ethyl)-4-hydroxybenzothiazol-2(3H)-one-derivatives as beta2 adrenoreceptor agonists” (AstraZeneca AB, priority 2005, published 2009)
Structures can show the parent of a compound that is named as a salt.

Key:
[1] = biological target: T1, recombinant human α1D receptor (Homo sapiens, UniProt P25100); experiment: Adrenergic α1D selectivity assay, inhibition of [3H]-prazosin binding; details: HEK293 membranes, [3H]-prazosin 0.3 nM; read-out: α1 bind pIC50 (converted)
T1 construct: expressed in transfected cells; host or cells: HEK293
T1 sequence (P25100 1-572): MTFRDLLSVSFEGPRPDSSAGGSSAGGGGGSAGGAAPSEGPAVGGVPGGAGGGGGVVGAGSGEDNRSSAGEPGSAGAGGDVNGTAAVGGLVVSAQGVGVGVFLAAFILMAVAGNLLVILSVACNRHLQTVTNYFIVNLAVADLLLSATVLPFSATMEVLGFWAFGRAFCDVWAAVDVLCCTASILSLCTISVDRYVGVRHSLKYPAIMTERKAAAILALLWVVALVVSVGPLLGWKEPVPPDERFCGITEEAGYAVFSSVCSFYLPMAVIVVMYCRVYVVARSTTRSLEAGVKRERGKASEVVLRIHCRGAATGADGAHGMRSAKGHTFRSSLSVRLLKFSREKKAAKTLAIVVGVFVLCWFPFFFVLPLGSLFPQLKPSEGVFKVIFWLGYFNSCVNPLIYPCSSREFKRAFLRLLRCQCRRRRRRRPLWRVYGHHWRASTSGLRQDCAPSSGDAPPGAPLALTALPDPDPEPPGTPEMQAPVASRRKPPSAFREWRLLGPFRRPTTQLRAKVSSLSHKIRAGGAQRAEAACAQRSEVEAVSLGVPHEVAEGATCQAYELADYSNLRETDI
Protocol: Membranes were prepared from human embryonic kidney 293 (HEK293) cells expressing recombinant human α1D receptor. These were diluted in Assay Buffer (50 mM HEPES, 1 mM EDTA, 0.1% gelatin, pH 7.4) to provide a final concentration of membranes that gave a clear window between maximum and minimum specific binding.
(§1) Assays were performed in U-bottomed 96-well polypropylene plates. 10 μL [^3H]-prazosin (0.3 nM final concentration) and 10 μL of test compound (10× final concentration) were added to each test well. For each assay plate 8 replicates were obtained for [^3H]-prazosin binding in the presence of 10 μL vehicle (10% (v/v) DMSO in Assay Buffer; defining maximum binding) or 10 μL BMY7378 (10 μM final concentration; defining non-specific binding (NSB)). Membranes were then added to achieve a final volume of 100 μL. The plates were incubated for 2 hours at room temperature and then filtered onto PEI coated GF/B filter plates, pre-soaked for 1 hour in Assay Buffer, using a 96-well plate Tomtec cell harvester. Five washes with 250 μL wash buffer (50 mM HEPES, 1 mM EDTA, pH 7.4) were performed at 4° C. to remove unbound radioactivity. The plates were dried then sealed from underneath using Packard plate sealers and MicroScint-O (50 μL) was added to each well. The plates were sealed (TopSeal A) and filter-bound radioactivity was measured with a scintillation counter (TopCount, Packard BioScience) using a 3-minute counting protocol.
(§2) Total specific binding (B0) was determined by subtracting the mean NSB from the mean maximum binding. NSB values were also subtracted from values from all other wells.

[2] = biological target: T2, Adrenergic β2 (Homo sapiens, UniProt P07550); experiment: Alternative Adrenergic β2 Mediated cAMP Production in H292 cells (AlphaScreen cAMP detection); type: cell-based; details: for EC50: cAMP, test compounds incubated 60 minutes, 300 μM rolipram, read-out: β2 pEC50 (converted); for β2 Int Act: fraction relative to the maximum activity determined for formoterol, 60 minutes incubation
T2 construct: endogenous in cells; host or cells: H292 cells
T2 sequence (P07550 whole entry): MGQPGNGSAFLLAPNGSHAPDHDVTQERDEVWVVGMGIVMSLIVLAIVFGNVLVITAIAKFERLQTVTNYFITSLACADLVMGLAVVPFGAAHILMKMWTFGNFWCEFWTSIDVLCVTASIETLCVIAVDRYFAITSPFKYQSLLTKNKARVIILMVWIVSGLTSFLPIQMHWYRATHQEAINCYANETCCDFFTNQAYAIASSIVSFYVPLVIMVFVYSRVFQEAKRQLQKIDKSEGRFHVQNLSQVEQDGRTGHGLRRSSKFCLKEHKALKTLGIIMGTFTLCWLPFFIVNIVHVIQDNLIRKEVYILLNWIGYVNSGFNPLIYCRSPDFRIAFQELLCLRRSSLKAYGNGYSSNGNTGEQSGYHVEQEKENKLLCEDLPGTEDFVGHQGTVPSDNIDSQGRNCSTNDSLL
Protocol: H292 cells were grown in 225 cm2 flasks incubator at 37° C., 5% CO2 in RPMI medium containing, 10% (v/v) FBS (foetal bovine serum) and 2 mM L-glutamine.
Adherent H292 cells were removed from tissue culture flasks by treatment with Accutase™ cell detachment solution for 15 minutes. Flasks were incubated for 15 minutes in a humidified incubator at 37° C., 5% CO2. Detached cells were re-suspended in RPMI media (containing 10% (v/v) FBS and 2 mM L-glutamine) at 0.05×10^6 cells per mL. 5000 cells in 100 μL were added to each well of a tissue-culture-treated 96-well plate and the cells incubated overnight in a humidified incubator at 37° C., 5% CO2. The culture media was removed and cells were washed twice with 100 μL assay buffer and replaced with 50 μL assay buffer (HBSS solution containing 10 mM HEPES pH7.4 and 5 mM glucose). […] Cells were incubated with rolipram for 10 minutes after which time test compounds were added and the cells were incubated for 60 minutes at room temperature. […] The reaction was stopped by removing supernatants, washing once with 100 μL assay buffer and replacing with 50 μL lysis buffer. The cell monolayer was frozen at −80° C. for 30 minutes (or overnight).
The concentration of cAMP (cyclic adenosine monophosphate) in the cell lysate was determined using AlphaScreen™ methodology. The frozen cell plate was thawed for 20 minutes on a plate shaker then 10 μL of the cell lysate was transferred to a 96-well white plate. 40 μL of mixed AlphaScreen™ detection beads pre-incubated with biotinylated cAMP, was added to each well and the plate incubated at room temperature for 10 hours in the dark. The AlphaScreen™ signal was measured using an EnVision spectrophotometer (Perkin-Elmer Inc.) with the recommended manufacturer's settings. cAMP concentrations were determined by reference to a calibration curve determined in the same experiment using standard cAMP concentrations. Concentration response curves for agonists were constructed and data was fitted to a four parameter logistic equation to determine both the pEC50 and Intrinsic Activity.

[3] = biological target: T3, recombinant human adrenergic beta 1 receptors (Homo sapiens, UniProt P08588); experiment: Adrenergic β1 selectivity assay, inhibition of [125I]-Iodocyanopindolol binding; details: membranes, [125I]-Iodocyanopindolol; read-out: β1 bind pIC50 (converted)
T3 construct: purchased Euroscreen
T3 sequence (P08588 whole entry): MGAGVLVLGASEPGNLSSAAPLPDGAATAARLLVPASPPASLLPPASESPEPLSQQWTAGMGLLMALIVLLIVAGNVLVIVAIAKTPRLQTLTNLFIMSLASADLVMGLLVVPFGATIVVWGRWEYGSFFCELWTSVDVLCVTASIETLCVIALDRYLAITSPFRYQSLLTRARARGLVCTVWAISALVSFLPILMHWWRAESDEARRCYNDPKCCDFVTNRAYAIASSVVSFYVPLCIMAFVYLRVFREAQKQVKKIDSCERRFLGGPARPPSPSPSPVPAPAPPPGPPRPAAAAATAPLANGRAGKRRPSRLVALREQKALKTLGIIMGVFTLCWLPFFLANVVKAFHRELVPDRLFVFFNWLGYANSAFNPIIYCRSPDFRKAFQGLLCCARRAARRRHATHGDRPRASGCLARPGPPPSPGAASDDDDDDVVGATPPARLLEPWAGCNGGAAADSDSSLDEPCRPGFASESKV
Protocol: (§3) Membranes containing recombinant human adrenergic beta 1 receptors were obtained from Euroscreen. These were diluted in Assay Buffer (50 mM HEPES, 1 mM EDTA, 120 mM NaCl, 0.1% gelatin, pH 7.4) to provide a final concentration of membranes that gave a clear window between maximum and minimum specific binding.
as §1, with “10 μL [^3H]-prazosin (0.3 nM final concentration) and 10 μL of test compound (10× final concentration) were added to each test well. For each assay plate 8 replicates were obtained for [^3H]-prazosin binding in the presence of 10 μL vehicle (10% (v/v) DMSO in Assay Buffer; defining maximum binding) or 10 μL BMY7378 (10 μM final concentration; defining non-specific binding (NSB)).” left out, “EDTA, 120 mM NaCl,” for “EDTA,”
as §2

[4] = biological target: T4, recombinant human Dopamine Subtype D2s receptors (Homo sapiens, UniProt P14416); experiment: Dopamine D2 selectivity assay, inhibition of [3H]-spiperone binding; details: membranes, [3H]-spiperone 0.16 nM; read-out: D2 bind pIC50 (converted)
T4 construct: purchased Perkin Elmer
T4 sequence (P14416 1-414 isoform P14416-2): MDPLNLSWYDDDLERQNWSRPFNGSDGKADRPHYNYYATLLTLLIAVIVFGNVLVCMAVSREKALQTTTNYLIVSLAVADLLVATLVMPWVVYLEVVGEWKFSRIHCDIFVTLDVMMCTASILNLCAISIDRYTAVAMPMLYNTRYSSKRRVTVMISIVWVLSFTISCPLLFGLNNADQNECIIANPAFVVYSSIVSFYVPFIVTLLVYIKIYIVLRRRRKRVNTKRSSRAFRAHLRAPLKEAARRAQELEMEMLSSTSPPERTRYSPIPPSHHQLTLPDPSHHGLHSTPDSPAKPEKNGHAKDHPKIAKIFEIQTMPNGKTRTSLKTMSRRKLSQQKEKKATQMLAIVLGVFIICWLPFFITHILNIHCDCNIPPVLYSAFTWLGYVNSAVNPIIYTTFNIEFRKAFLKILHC
Protocol: as §3, with “human Dopamine Subtype D2s” for “human adrenergic beta 1”, “from Perkin Elmer.” for “from Euroscreen.”, “([…]” for “(50 mM”
Assays were performed in U-bottomed 96-well polypropylene plates. […] For each assay plate 8 replicates were obtained for [^3H]-spiperone binding in the presence of 30 μL vehicle (10% (v/v) DMSO in Assay Buffer; defining maximum binding) or 30 μL Haloperidol (10 μM final concentration; defining non-specific binding (NSB)). Membranes were then added to achieve a final volume of 300 μL. The plates were incubated for 2 hours at room temperature and then filtered onto PEI coated GF/B filter plates, pre-soaked for 1 hour in Assay Buffer, using a 96-well plate Tomtec cell harvester. Five washes with 250 μL wash buffer (50 mM HEPES, 1 mM EDTA, 120 mM NaCl, pH 7.4) were performed at 4° C. to remove unbound radioactivity. The plates were dried then sealed from underneath using Packard plate sealers and MicroScint-O (50 μL) was added to each well. The plates were sealed (TopSeal A) and filter-bound radioactivity was measured with a scintillation counter (TopCount, Packard BioScience) using a 3-minute counting protocol. Total specific binding (B0) was determined by subtracting the mean NSB from the mean maximum binding. NSB values were also subtracted from values from all other wells.

| SMILES | IC50 [1] [nM] | EC50 [2] [nM] | β2 Int Act [2] | IC50 [3] [nM] | IC50 [4] [nM] |
| --- | --- | --- | --- | --- | --- |
| O=c1[nH]c2c(O)ccc([C@@H](O)CNCCSCCCNCCc3cccc(C(F)(F)F)c3)c2s1 [Example 18, 4-Hydroxy-7-{(1R)-1-hydroxy-2-[(2-{[3-({2-[3-(trifluoromethyl)phenyl]ethyl}amino)propyl]thio}ethyl)amino]ethyl}-1,3-benzothiazol-2(3H)-one] | 251 | 3.16 | 0.8 | 100 | – |
| CCOc1ccc(CCNCCCSCCNC[C@H](O)c2ccc(O)c3[nH]c(=O)sc23)cc1 [Example 16, 7-[(1R)-2-({2-[(3-{[2-(4-Ethoxyphenyl)ethyl]amino}propyl)thio]ethyl}amino)-1-hydroxyethyl]-4-hydroxy-1,3-benzothiazol-2(3H)-one] | 1580 | – | 0.7 | – | – |
| O=c1[nH]c2c(O)ccc([C@@H](O)CNCCCSCCNCCc3cccc(Cl)c3)c2s1 [Example 33, 7-[(1R)-2-({3-[(2-{[2-(3-Chlorophenyl)ethyl]amino}ethyl)thio]propyl}amino)-1-hydroxyethyl]-4-hydroxy-1,3-benzothiazol-2(3H)-one] | 39.8 | – | 1.1 | – | 1000 |
| Cl.O=c1[nH]c2c(O)ccc([C@@H](O)CNCCSCCCNCCc3ccccc3)c2s1 [Example 11, 4-Hydroxy-7-((1R)-1-hydroxy-2-{[2-({3-[(2-phenylethyl)amino]propyl}thio)ethyl]amino}ethyl)-1,3-benzothiazol-2(3H)-one hydrochloride] | 126 | – | 0.9 | 251 | – |
| O=c1[nH]c2c(O)ccc([C@@H](O)CNCCCOCCOCCc3ccccc3)c2s1 [Example 3, 4-Hydroxy-7-[(1R)-1-hydroxy-2-({3-[2-(2-phenylethoxy)ethoxy]propyl}amino)ethyl]-1,3-benzothiazol-2(3H)-one trifluoroacetate] | – | 0.126 | 0.9 | – | – |
| O=c1[nH]c2c(O)ccc([C@@H](O)CNCCOCCCNCCc3cccc(Cl)c3)c2s1 [Example 36, 7-((1R)-2-{[2-(3-{[2-(3-Chlorophenyl)ethyl]amino}propoxy)ethyl]amino}-1-hydroxyethyl)-4-hydroxy-1,3-benzothiazol-2(3H)-one] | – | – | 1 | 100 | – |
| Cl.O=c1[nH]c2c(O)ccc([C@@H](O)CNCCCSCCOCCc3ccccc3)c2s1 [Example 9, 4-Hydroxy-7-{(1R)-1-hydroxy-2-[(3-{[2-(2-phenylethoxy)ethyl]thio}-propyl)amino]ethyl}-1,3-benzothiazol-2(3H)-one hydrochloride] | – | – | 1 | – | – |
| O=c1[nH]c2c(O)ccc([C@@H](O)CNCCCSCCOCCc3cccc4ccccc34)c2s1 [Example 1, 4-Hydroxy-7-((1R)-1-hydroxy-2-{[3-({2-[2-(1-naphthyl)ethoxy]ethyl}thio)propyl]-amino}ethyl)-1,3-benzothiazol-2(3H)-one trifluoroacetate] | – | 0.1 | 1 | – | 200 |
| Cl.O=c1[nH]c2c(O)ccc([C@@H](O)CNCCCSCCCOCCc3ccccc3)c2s1 [Example 6, 4-Hydroxy-7-{(1R)-1-hydroxy-2-[(3-{[3-(2-phenylethoxy)propyl]thio}propyl)amino]ethyl}-1,3-benzothiazol-2(3H)-one hydrochloride] | – | – | 0.9 | 3.98 | – |
| O=c1[nH]c2c(O)ccc([C@@H](O)CNCCSCCCNCCc3cccc(Cl)c3)c2s1 [Example 40, 7-[(1R)-2-({2-[(3-{[2-(3-Chlorophenyl)ethyl]amino}propyl)thio]ethyl}amino)-1-hydroxyethyl]-4-hydroxy-1,3-benzothiazol-2(3H)-one dihydrochloride] | – | 1 | 0.8 | – | – |
| O=c1[nH]c2c(O)ccc([C@@H](O)CNCCSCCCNCCc3ccccc3Cl)c2s1 [Example 20, 7-[(1R)-2-({2-[(3-{[2-(2-Chlorophenyl)ethyl]amino}propyl)thio]ethyl}amino)-1-hydroxyethyl]-4-hydroxy-1,3-benzothiazol-2(3H)-one] | 25.1 | – | 0.8 | – | – |
| CCc1ccc(CCNCCCSCCNC[C@H](O)c2ccc(O)c3[nH]c(=O)sc23)cc1 [Example 14, 7-[(1R)-2-({2-[(3-{[2-(4-Ethylphenyl)ethyl]amino}propyl)thio]ethyl}amino)-1-hydroxyethyl]-4-hydroxy-1,3-benzothiazol-2(3H)-one] | 100 | 3.98 | 0.9 | 50.1 | – |
| O=c1[nH]c2c(O)ccc([C@@H](O)CNCCCOCCOCCc3cccc4ccccc34)c2s1 [Example 7, 4-Hydroxy-7-{(1R)-1-hydroxy-2-[(3-{2-[2-(1-naphthyl)ethoxy]ethoxy}propyl)amino]ethyl}-1,3-benzothiazol-2(3H)-one] | 631 | – | 1.1 | – | – |
